Results reported in patent US8846699B2, “Quinazoline derivatives as a multiplex inhibitor and method for the preparation thereof” (Hanmi Pharm. Co., Ltd., priority 2005, dated 2014).

Columns and labels:
VEGFR2 (KDR) = VEGFR2 (KDR) (Homo sapiens (Human), UniProt P35968); assay: VEGFR2 (KDR) enzyme assay, fluorescence polarization; format: biochemical; details: 5 μM ATP, poly(Glu, Tyr) substrate
Protocol: VEGFR2 (KDR, Proquinase) enzyme assay (auto-phosphorylation assay) was carried out by using Tyrosine Kinase Assay Kit Green (Panvera). The entire assay was conducted in accordance with VEGFR PTK inhibitor cellular activity test S.O.P.
A typical kinase inhibition reaction requires a protein tyrosine kinase, a suitable buffer solution system, a peptide substrate and ATP. In the present VEGFR tyrosine kinase assay, a buffer solution system containing 20 mM HEPES (pH 7.4), 5 mM MgCl2 and 2 mM MnCl2; 50 μM Na3VO4; 200 ng/10 μl VEGFR (Proquinase); 5 μM ATP; and 10 ng/ml poly(Glu, Tyr) (4:1, Sigma) as a substrate were used.
The compounds of Test Example 1 were used as control compounds at a concentration of 0.0001 to 10 μM. After 10 min, 10 μl of poly(Glu, Tyr) as a substrate was added to each well, and 10 μl of ATP was added thereto to initiate kinase reaction. The plate was incubated at room temperature for 1 hour, and 10 μl of 100 mM EDTA was added to each well to terminate the kinase reaction.
The added EDTA was mixed for 5 min. Thereafter, 10 μl of 10× anti-phosphotyrosine antibody (Panvera), 10 μl of 10×PTK Green Tracer (Panvera) and 30 μl of FP dilution buffer (Panvera) were added thereto, and the plate was incubated in a dark room at room temperature for 30 min.

[1] = test system: skin cancer cell line, A431; assay: Inhibitory effect on growth of cancer cell line A431, SRB; format: cell-based; details: overexpressed EGFR1 (HER-1)
Description: (§1) A skin cancer cell line, A431 (ATCC: CRL-1555), a breast cancer cell line, SK-Br3 (ATCC: HTB-30), and a colon and rectal cancer cell line, SW-620 (ATCC: CCL-227) were used to test the degrees of cancer cell growth inhibition using a culture medium, DEME (Dulbecco's Modified Eagle's Medium, JBI) including 4.5 g/l of glucose and 1.5 g/l of sodium bicarbonate and supplemented with 10% FBS (fetal bovine serum, JBI).
(§2) The cancer cell lines stored in a liquid nitrogen tank were each quickly thawed at 37° C., and centrifuged to remove the medium. The resulting cell pellet was mixed with a culture medium, incubated in a culture flask at 37° C. under 5% CO2 for 2 to 3 days, and the medium was removed. The remaining cells were washed with DPBS (Dulbecco's Phosphate Buffered Saline, JBI) and separated from the flask by using Trypsin-EDTA solution, and the separated cells were diluted with a culture medium to a concentration of 1.0×10^6 cells/ml in case of A431 and SW-620, and 2.0×10^6 cells/ml in case of SK-Br3. 100 μl of the diluted cell solution was added to each well of a 96-well plate, which was incubated at 37° C. under 5% CO2 for 1 day.
(§3) In case that the test compound was not soluble in DMSO, a small amount of 1% HCl was added thereto and treated in a 40° C. water bath for 30 mins until complete dissolution was attained. The test compound solution was diluted with a culture medium to a final concentration of 10 μM, and then diluted 10 times serially to 10^−4. The final concentration of DMSO was less than 1%, and the control compounds of Test Example 1 were used at a concentration of 0.0001 to 10 μM.
(§4) The medium was removed from each well of the 96-well microplate, 100 μl of a diluted test compound solution was added to each well holding cultured cells, and the microplate was incubated at 37° C. under 5% CO2 for 72 hours. After removing the medium from the plate, 50 μl of 10% trichloroacetic acid was added to each well, and the plate was kept at 37° C. for 1 hour to fix the cells to the bottom of the plate. 10% trichloroacetic acid was removed from each well, the plate was dried, 100 μl of an SRB (Sulforhodamine-B, Sigma) dye solution was added thereto, and reacted for 10 mins. The SRB dye solution was prepared by dissolving SRB in 1% acetic acid to a concentration of 0.4%. After removing the dye solution, the plate was washed with water, and dried. When the dye solution was not removed by water, 1% acetic acid was used.
(§5) 150 μl of 10 mM trisma base (Sigma) was added to each well, and the absorbance at 570 nm was determined with a microplate reader (Molecular device).

[2] = test system: breast cancer cell line, SK-Br3; assay: Inhibitory effect on growth of cancer cell line SK-Br3, SRB; format: cell-based; details: overexpressed EGFR2 (HER-2)
Description: as §1, §2, §3, §4, §5

[3] = test system: Human Umbilical Vein Endothelial Cell (HUVEC); assay: Inhibitory effect on growth of human umbilical vein endothelial cell (HUVEC), MTS; format: cell-based; details: 10 ng/ml VEGF, absorbance 490 nm
Protocol: HUVECs (Young Science, Inc) were suspended in a culture medium, EBM-2 (Endothelial Basic Media, Cambrex) supplemented with 2% bovine serum (Cambrex) and auxiliary additives for HUVEC culture (e.g., EGF, VEGF, FGF, etc., Cambrex), inoculated into a culture flask coated with 1% gelatin, and incubated in an incubator at 37° C. under 5% CO2 and 100% humidity.
100 μl of 5% bovine serum medium containing 10 ng/ml of vascular endothelial growth factor (VEGF) and auxiliary additives, while excluding other growth factors was added to each well of a 96-well plate. […] DMSO (Dimethylsulfoxide) was used to dissolve the test compounds, and the final concentration of DMSO was less than 1%.
100 μl of the diluted cell solution was added to each well of the 96-well plate, which was incubated in an incubator for 96 hours.
Then, 20 μl of MTS ([…], Promega) solution was added to each well of the plate, and the plate was incubated in an incubator for 4 hours to induce discoloration. After 4 hours, the pellets were dissolved by way of a thorough shaking, and the absorbance at 490 nm was determined.

EGFR1 (HER-1) = EGFR1 (HER-1) (Homo sapiens (Human), UniProt P00533); assay: EGFR1 (HER-1) enzyme assay, fluorescence polarization; format: biochemical; details: 100 μM ATP, poly(Glu, Tyr) substrate
[4] = test system: colon and rectal cancer cell line, SW-620; assay: Inhibitory effect on growth of cancer cell line SW-620, SRB; format: cell-based; details: not having overexpressed EGFR and EGFR2
Description: as §1, §2, §3, §4, §5

VEGFR2 (KDR), sequence (P35968 20-1356): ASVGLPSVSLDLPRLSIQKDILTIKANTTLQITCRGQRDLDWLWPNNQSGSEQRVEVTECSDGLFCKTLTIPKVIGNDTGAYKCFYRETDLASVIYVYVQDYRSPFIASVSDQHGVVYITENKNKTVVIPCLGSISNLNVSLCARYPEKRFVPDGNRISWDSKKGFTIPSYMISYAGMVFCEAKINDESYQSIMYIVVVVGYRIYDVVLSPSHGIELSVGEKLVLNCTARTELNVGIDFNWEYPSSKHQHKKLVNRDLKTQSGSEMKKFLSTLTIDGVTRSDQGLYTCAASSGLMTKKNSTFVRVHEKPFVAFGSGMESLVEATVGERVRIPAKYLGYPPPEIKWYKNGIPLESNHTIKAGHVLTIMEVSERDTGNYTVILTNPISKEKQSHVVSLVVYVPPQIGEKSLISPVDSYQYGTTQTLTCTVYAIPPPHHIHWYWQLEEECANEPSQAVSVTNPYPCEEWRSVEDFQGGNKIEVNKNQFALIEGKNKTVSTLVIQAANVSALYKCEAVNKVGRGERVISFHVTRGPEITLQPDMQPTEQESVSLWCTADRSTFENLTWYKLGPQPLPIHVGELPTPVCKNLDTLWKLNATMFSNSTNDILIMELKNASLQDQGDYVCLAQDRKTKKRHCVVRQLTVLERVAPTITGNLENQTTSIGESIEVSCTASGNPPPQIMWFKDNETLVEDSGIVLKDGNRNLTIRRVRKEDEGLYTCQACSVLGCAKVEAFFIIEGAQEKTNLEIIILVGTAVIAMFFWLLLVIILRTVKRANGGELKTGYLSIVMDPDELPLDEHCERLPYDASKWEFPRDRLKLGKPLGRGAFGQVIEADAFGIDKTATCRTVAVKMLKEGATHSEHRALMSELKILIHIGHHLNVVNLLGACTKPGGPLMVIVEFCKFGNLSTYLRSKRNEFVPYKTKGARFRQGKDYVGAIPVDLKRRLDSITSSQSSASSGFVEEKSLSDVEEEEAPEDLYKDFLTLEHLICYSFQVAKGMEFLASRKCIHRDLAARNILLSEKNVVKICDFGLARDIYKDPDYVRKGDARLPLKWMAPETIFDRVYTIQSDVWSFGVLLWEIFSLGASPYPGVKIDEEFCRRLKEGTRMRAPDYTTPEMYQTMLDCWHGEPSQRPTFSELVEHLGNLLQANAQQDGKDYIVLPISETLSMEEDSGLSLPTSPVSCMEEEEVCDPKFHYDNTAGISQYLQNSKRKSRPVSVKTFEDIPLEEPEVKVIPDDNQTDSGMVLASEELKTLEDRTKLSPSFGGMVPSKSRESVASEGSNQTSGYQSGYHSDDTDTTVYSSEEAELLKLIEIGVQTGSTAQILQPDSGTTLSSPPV

| Compound | IC50 (VEGFR2 (KDR)) [nM] | IC50 ([1]; Homo sapiens, A-431, 72 h) [nM] | IC50 ([2]; Homo sapiens, SK-BR-3, 72 h) [nM] | IC50 (EGFR1 (HER-1)) [nM] | IC50 ([4]; Homo sapiens, 72 h) [nM] | IC50 ([1]; 72 hours) [nM] | IC50 ([2]; 72 hours) [nM] | IC50 ([4]; 72 hours) [nM] | IC50 ([3]; Homo sapiens, 96 h) [nM] | IC50 ([3]; 96 hours) [nM] |
| --- | --- | --- | --- | --- | --- | --- | --- | --- | --- | --- |
| C=CC(=O)Nc1cc2c(Nc3ccc(Cl)nc3)ncnc2cc1OCCNC(C)=O [Example 128, N-[7-(2-acetylamino-ethoxy)-4-(6-chloro-pyridin-3-ylamino)-quinazolin-6-yl]-acrylamide] | 823 | 68 | 95 | 65 | 10000 | – | – | – | 945 | – |
| C=CC(=O)Nc1cc2c(Nc3ccc(Br)cc3F)ncnc2cc1OCCNC(=O)C=NOC [Example 73, N-{4-(4-bromo-2-fluoro-phenylamino)-7-[2-(2-methoxyimino-acetylamino)-ethoxy]-quinazolin-6-yl}-acrylamide] | 668 | 365 | 589 | 256 | 10000 | – | – | – | 634 | – |
| C=CC(=O)Nc1cc2c(Nc3cc(Cl)c(Cl)cc3F)ncnc2cc1OCCN(C)C [Example 136, N-[4-(4,5-dichloro-2-fluoro-phenylamino)-7-(2-dimethylamino-ethoxy)-quinazolin-6-yl]-acrylamide] | 856 | 343 | 181 | 321 | 2940 | – | – | – | 923 | – |
| C=CC(=O)Nc1cc2c(Nc3ccc(Br)cc3F)ncnc2cc1OCCNC(=O)CN1CCN(C)CC1 [Example 102, N-(4-(4-bromo-2-fluoro-phenylamino)-7-{2-[2-(4-methyl-piperazin-1-yl)-acetylamino]-ethoxy}-quinazolin-6-yl)-acrylamide] | 654 | 15 | 112 | 12 | 727 | – | – | – | 682 | – |
| N-{2-[6-acryloylamino-4-(4-bromo-2,3-difluoro-phenylamino)-quinazolin-7-oxy]-ethyl}-4-dimethylamino-butylamide [Example 127] | 958 | – | – | 568 | – | 698 | 1020 | 6510 | – | 676 |
| C=CC(=O)Nc1cc2c(Nc3ccc(F)cc3F)ncnc2cc1OCCNC(=O)CN(C)C [Example 68, N-[4-(2,4-difluorophenylamino)-7-{2-[2-(dimethylamino)-acetylamino]-ethoxy}-quinazolin-6-yl]-acrylamide] | 687 | 265 | 564 | 156 | 725 | – | – | – | 682 | – |
| C=CC(=O)Nc1cc2c(Nc3ccc(Br)cc3F)ncnc2cc1OCCNC(=O)C=CCN(C)C [Example 53, 4-dimethylamino-but-2-enoic acid {2-[6-acryloylamino-4-(4-bromo-2-fluoro-phenylamino)-quinazolin-7-yloxy]-ethyl}-amide] | 875 | 12 | 223 | 16 | 4760 | – | – | – | 964 | – |
| C=CC(=O)Nc1cc2c(Nc3ccc(Br)cc3F)ncnc2cc1OCCNC(=O)CN1CCOCC1 [Example 103, N-{4-(4-bromo-2-fluoro-phenylamino)-7-[2-(2-morpholin-4-yl-acetylamino)-ethoxy]-quinazolin-6-yl}-acrylamide] | 782 | 35 | 399 | 32 | 3670 | – | – | – | 932 | – |

Further compounds by falling IC50 (VEGFR2 (KDR)), results first:

| IC50 (VEGFR2 (KDR)) [nM] | IC50 ([1]; Homo sapiens, A-431, 72 h) [nM] | IC50 ([2]; Homo sapiens, SK-BR-3, 72 h) [nM] | IC50 (EGFR1 (HER-1)) [nM] | IC50 ([4]; Homo sapiens, 72 h) [nM] | IC50 ([1]; 72 hours) [nM] | IC50 ([2]; 72 hours) [nM] | IC50 ([4]; 72 hours) [nM] | Compound | IC50 ([3]; Homo sapiens, 96 h) [nM] | IC50 ([3]; 96 hours) [nM] |
| --- | --- | --- | --- | --- | --- | --- | --- | --- | --- | --- |
| 654 | 153 | 128 | 198 | 10000 | – | – | – | C=CC(=O)Nc1cc2c(Nc3ccc(Br)cc3F)ncnc2cc1OCCNC(=O)CN(C)CC [Example 56, N-(4-(4-bromo-2-fluoro-phenylamino)-7-{2-[2-(ethyl-methyl-amino)-acetylamino]-ethoxy}-quinazolin-6-yl)-acrylamide] | 691 | – |
| 587 | 15 | 335 | 17 | 2790 | – | – | – | C=CC(=O)Nc1cc2c(Nc3ccc(Br)cc3F)ncnc2cc1OCC1CNC(=O)O1 (stereo not drawn) [Example 91, N-[4-(4-bromo-2-fluoro-phenylamino)-7-(2-oxo-oxazolidin-5-ylmethoxy)-quinazolin-6-yl]-acrylamide] | 696 | – |
| 354 | 89 | 43 | 91 | 722 | – | – | – | C=CC(=O)Nc1cc2c(Nc3ccc(Br)cc3F)ncnc2cc1OCCNC(=S)NCC [Example 36, N-{4-(4-bromo-2-fluoro-phenylamino)-7-[2-(3-ethyl-thioureido)-ethoxy]-quinazolin-6-yl}-acrylamide] | 389 | – |
| 330 | 118 | 734 | 68 | 9570 | – | – | – | C=CC(=O)Nc1cc2c(Nc3ccc(Br)cc3F)ncnc2cc1OCCCNC(=O)CS(C)(=O)=O [Example 15, N-{4-(4-bromo-2-fluoro-phenylamino)-7-[3-(2-methanesulfonyl-acetylamino)-propoxy]-quinazolin-6-yl}-acrylamide] | 150 | – |
| 208 | 18 | 228 | 11 | 10000 | – | – | – | C=CC(=O)Nc1cc2c(Nc3ccc(Br)cc3F)ncnc2cc1OCCCNC(=O)NCC [Example 16, N-{4-(4-bromo-2-fluoro-phenylamino)-7-[3-(3-ethyl-ureido)-propoxy]-quinazolin-6-yl}-acrylamide] | 102 | – |
| 84 | 140 | 198 | 158 | 10000 | – | – | – | C=CC(=O)Nc1cc2c(Nc3ccc(Br)cc3F)ncnc2cc1OCCNC(=O)OC [Example 63, {2-[6-acryloylamino-4-(4-bromo-2-fluoro-phenylamino)-quinazolin-7-yloxy]-ethyl}-carbamic acid methylester] | 102 | – |
| 71 | 113 | 933 | 98 | 2870 | – | – | – | C=CC(=O)Nc1cc2c(Nc3ccc(Br)cc3F)ncnc2cc1OC[C@H](C)NC(C)=O [Example 83, (S)—N-[7-(2-acetylamino-propoxy)-4-(4-bromo-2-fluoro-phenylamino)-quinazolin-6-yl]-acrylamide] | 106 | – |
